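Where inhibition never reached the appropriate level, the endpoint shown equals the highest concentration tested. Otherwise, values were interpolated linearly from a five-concentration, 48-hour dose response in 96-well plates. GI50 marks 50% less growth.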 The source made the active and inactive calls. Rule as the data show it: active = GI50 up to about 1.1 µM and inactive = higher.
Columns and labels:
Experiment in all cases: NCI anticancer screen, dose series, 48 h
A498 = tested on: A498
SF-295 = tested on: SF-295
LXFL 529 = tested on: LXFL 529
SK-OV-3 = tested on: SK-OV-3
K562 = tested on: K562
SK-MEL-5 = tested on: SK-MEL-5
UACC-62 = tested on: UACC-62
OVCAR-5 = tested on: OVCAR-5
HCT-15 = tested on: HCT-15
SNB-78 = tested on: SNB-78
HL-60 = tested on: HL-60
CAKI-1 = tested on: CAKI-1
Malme-3M = tested on: Malme-3M
DMS-273 = tested on: DMS-273
NCI-H460 = tested on: NCI-H460
MOLT-4 = tested on: MOLT-4
HCT-116 = tested on: HCT-116
DMS-114 = tested on: DMS-114
SF-268 = tested on: SF-268
EKVX = tested on: EKVX
ACHN = tested on: ACHN
A549 = tested on: A549
CCRF-CEM = tested on: CCRF-CEM
UO-31 = tested on: UO-31
XF498 = tested on: XF498
RXF 393 = tested on: RXF 393
SR = tested on: SR
UACC-257 = tested on: UACC-257
786-0 = tested on: 786-0
RPMI-8226 = tested on: RPMI-8226
IGROV-1 = tested on: IGROV-1
HOP-92 = tested on: HOP-92
NCI-H226 = tested on: NCI-H226
M14 = tested on: M14
HT-29 = tested on: HT-29
KM-20L2 = tested on: KM-20L2
SW-620 = tested on: SW-620
SN12C = tested on: SN12C
SK-MEL-2 = tested on: SK-MEL-2
HCC 2998 = tested on: HCC 2998
OVCAR-4 = tested on: OVCAR-4
SNB-75 = tested on: SNB-75
SF-539 = tested on: SF-539
SNB-19 = tested on: SNB-19
KM12 = tested on: KM12
U-251 = tested on: U-251
LOX IMVI = tested on: LOX IMVI
M19-MEL = tested on: M19-MEL
NCI-H522 = tested on: NCI-H522
COLO 205 = tested on: COLO 205
OVCAR-8 = tested on: OVCAR-8
SK-MEL-28 = tested on: SK-MEL-28
HOP-62 = tested on: HOP-62
TK-10 = tested on: TK-10
DLD-1 = tested on: DLD-1
NCI-H23 = tested on: NCI-H23
HOP-18 = tested on: HOP-18
OVCAR-3 = tested on: OVCAR-3

`Cc1cc(Cl)ccc1NC(=O)C(=O)C(C(=O)c1ccccc1)C1OC(=O)c2ccccc21` (centres undefined) was tested, and the GI50 (A498) was > 100 µM (inactive), the GI50 (SF-295) was > 100 µM (inactive) and the GI50 (LXFL 529) was > 100 µM (inactive). The GI50 (SK-OV-3) was > 100 µM (inactive), the GI50 (K562) was > 100 µM (inactive) and the GI50 (SK-MEL-5) was > 100 µM (inactive). For the same compound, the GI50 (UACC-62) was > 100 µM (inactive), the GI50 (OVCAR-5) was > 100 µM (inactive) and the GI50 (HCT-15) was greater than 100 µM. For the same compound, the GI50 (SNB-78) was > 100 µM (inactive), the GI50 (HL-60) was > 100 µM (inactive) and the GI50 (CAKI-1) was > 100 µM (inactive). For the same compound, the GI50 (Malme-3M) was > 100 µM (inactive), the GI50 (DMS-273) was > 100 µM (inactive) and the GI50 (NCI-H460) was > 100 µM (inactive). The GI50 (MOLT-4) was > 100 µM (inactive), the GI50 (HCT-116) was > 100 µM (inactive) and the GI50 (DMS-114) was > 100 µM (inactive). The GI50 (SF-268) was > 100 µM (inactive), the GI50 (EKVX) was > 100 µM (inactive) and the GI50 (ACHN) was > 100 µM (inactive). The GI50 (A549) was > 100 µM (inactive), the GI50 (CCRF-CEM) was > 100 µM (inactive) and the GI50 (UO-31) was > 100 µM (inactive). The GI50 (XF498) was > 100 µM (inactive), the GI50 (RXF 393) was > 100 µM (inactive) and the GI50 (SR) was > 100 µM (inactive). The GI50 (UACC-257) was > 100 µM (inactive), the GI50 (786-0) was > 100 µM (inactive) and the GI50 (RPMI-8226) was > 100 µM (inactive). The GI50 (IGROV-1) was > 100 µM (inactive), the GI50 (HOP-92) was > 100 µM (inactive) and the GI50 (NCI-H226) was > 100 µM (inactive). For the same compound, the GI50 (M14) was > 100 µM (inactive), the GI50 (HT-29) was > 100 µM (inactive) and the GI50 (KM-20L2) was > 100 µM (inactive). For the same compound, the GI50 (SW-620) was > 100 µM (inactive), the GI50 (SN12C) was > 100 µM (inactive) and the GI50 (SK-MEL-2) was > 100 µM (inactive). For the same compound, the GI50 (HCC 2998) was > 100 µM (inactive), the GI50 (OVCAR-4) was > 100 µM (inactive) and the GI50 (SNB-75) was > 100 µM (inactive). For the same compound, the GI50 (SF-539) was > 100 µM (inactive), the GI50 (SNB-19) was > 100 µM (inactive) and the GI50 (KM12) was > 100 µM (inactive). For the same compound, the GI50 (U-251) was > 100 µM (inactive), the GI50 (LOX IMVI) was > 100 µM (inactive) and the GI50 (M19-MEL) was > 100 µM (inactive). The GI50 (NCI-H522) was > 100 µM (inactive), the GI50 (COLO 205) was > 100 µM (inactive) and the GI50 (OVCAR-8) was > 100 µM (inactive). For the same compound, the GI50 (SK-MEL-28) was > 100 µM (inactive), the GI50 (HOP-62) was > 100 µM (inactive) and the GI50 (TK-10) was > 100 µM (inactive). For the same compound, the GI50 (DLD-1) was > 100 µM (inactive), the GI50 (NCI-H23) was > 100 µM (inactive) and the GI50 (HOP-18) was > 100 µM (inactive).
`CN1COc2c(n(C)c(=O)[nH]c2=O)C1` was tested, and the GI50 (A498) was > 100 µM (inactive), the GI50 (SF-295) was > 100 µM (inactive) and the GI50 (LXFL 529) was > 100 µM (inactive). For the same compound, the GI50 (OVCAR-3) was > 100 µM (inactive), the GI50 (SK-OV-3) was > 100 µM (inactive) and the GI50 (K562) was > 100 µM (inactive). The GI50 (SK-MEL-5) was > 100 µM (inactive), the GI50 (UACC-62) was > 80 µM (inactive) and the GI50 (OVCAR-5) was > 100 µM (inactive). For the same compound, the GI50 (HCT-15) was 98.2 µM, the GI50 (SNB-78) was > 100 µM (inactive) and the GI50 (HL-60) was 24.4 µM (inactive). The GI50 (CAKI-1) was > 47.8 µM (inactive), the GI50 (Malme-3M) was > 100 µM (inactive) and the GI50 (DMS-273) was 45.7 µM (inactive). For the same compound, the GI50 (NCI-H460) was > 100 µM (inactive), the GI50 (MOLT-4) was > 100 µM (inactive) and the GI50 (HCT-116) was 57.5 µM (inactive). The GI50 (DMS-114) was > 61.2 µM (inactive), the GI50 (SF-268) was > 100 µM (inactive) and the GI50 (EKVX) was > 100 µM (inactive). For the same compound, the GI50 (ACHN) was > 100 µM (inactive), the GI50 (A549) was > 100 µM (inactive) and the GI50 (CCRF-CEM) was > 61.7 µM (inactive). For the same compound, the GI50 (UO-31) was > 100 µM (inactive), the GI50 (XF498) was > 100 µM (inactive) and the GI50 (RXF 393) was > 66.7 µM (inactive). For the same compound, the GI50 (SR) was 27.2 µM (inactive), the GI50 (UACC-257) was > 100 µM (inactive) and the GI50 (786-0) was > 100 µM (inactive). The GI50 (RPMI-8226) was 26.1 µM (inactive), the GI50 (IGROV-1) was > 100 µM (inactive) and the GI50 (HOP-92) was > 100 µM (inactive). The GI50 (NCI-H226) was > 100 µM (inactive), the GI50 (M14) was > 100 µM (inactive) and the GI50 (HT-29) was > 100 µM (inactive). For the same compound, the GI50 (KM-20L2) was > 100 µM (inactive), the GI50 (SW-620) was 38.6 µM (inactive) and the GI50 (SN12C) was > 100 µM (inactive). For the same compound, the GI50 (SK-MEL-2) was > 100 µM (inactive), the GI50 (HCC 2998) was > 100 µM (inactive) and the GI50 (OVCAR-4) was > 100 µM (inactive). The GI50 (SNB-75) was > 100 µM (inactive), the GI50 (SF-539) was > 100 µM (inactive) and the GI50 (SNB-19) was > 100 µM (inactive). For the same compound, the GI50 (KM12) was > 100 µM (inactive), the GI50 (U-251) was > 100 µM (inactive) and the GI50 (M19-MEL) was > 100 µM (inactive). The GI50 (NCI-H522) was > 100 µM (inactive), the GI50 (COLO 205) was 59 µM (inactive) and the GI50 (OVCAR-8) was > 95.7 µM (inactive). The GI50 (SK-MEL-28) was > 100 µM (inactive), the GI50 (HOP-62) was > 100 µM (inactive) and the GI50 (TK-10) was > 100 µM (inactive). The GI50 (DLD-1) was > 100 µM (inactive), the GI50 (NCI-H23) was > 100 µM (inactive) and the GI50 (HOP-18) was > 100 µM (inactive).

Reference: ChEMBL document CHEMBL1201862, “PubChem BioAssay data set” (2004)
